Earlier results on one compound are cited in patent US4925675A (hiMedics, Inc., priority 1988, dated 1990).

Each structure is given as a SMILES string. Like-named read-outs stand apart in the source and are kept apart here.

The conditions of data set [1]: in vivo.

With `CC[C@H]1OC(=O)[C@H](C)[C@@H](O[C@H]2C[C@@](C)(OC)[C@@H](O)[C@H](C)O2)[C@H](C)[C@@H](O[C@@H]2O[C@H](C)C[C@H](N(C)C)[C@H]2O)[C@](C)(O)C[C@@H](C)C(=O)[C@H](C)[C@@H](O)[C@]1(C)O` [Erythromycin], the pKa is given as 8.7 and the solubility in water entry is given as “very slightly soluble”. In addition, in data set [1], the “absorption in small intestine versus stomach” value is “better absorption characteristics in the small intestine than in the stomach”. Moreover, the “solubility in simulated intestinal fluid” value (SIF) is recorded as “very soluble”. Further, the “solubility in alcohol, chloroform, ether and acetone” value (alcohol, chloroform, ether and acetone) is “freely soluble”. Also, the “solubility in amyl acetate and ethylene dichloride” value (amyl acetate and ethylene dichloride) was “moderately soluble”. In addition, the solubility in water result (listed as erythromycin) is “not highly soluble”.
